Assay results published in ChEMBL document CHEMBL1201862, “PubChem BioAssay data set” (2004).
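Cultured in 96-well plates, cells were exposed to test compound for 48 hours across five concentrations. At the GI50, growth is halved.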 Calls of active or inactive are those of the source. No stated cut-off is given here; in the data, active = GI50 up to about 1.1 µM and inactive = higher.

Assays:
Assay in all cases: DTP human tumour cell line panel, 48 h
TK-10 = tested on: TK-10
SF-539 = tested on: SF-539
LOX IMVI = tested on: LOX IMVI
SK-MEL-28 = tested on: SK-MEL-28
MOLT-4 = tested on: MOLT-4
KM12 = tested on: KM12
BT-549 = tested on: BT-549
HT-29 = tested on: HT-29
CCRF-CEM = tested on: CCRF-CEM
SK-MEL-5 = tested on: SK-MEL-5
T47D = tested on: T47D
SF-295 = tested on: SF-295
HCT-15 = tested on: HCT-15
U-251 = tested on: U-251
SK-MEL-2 = tested on: SK-MEL-2
UO-31 = tested on: UO-31
SN12C = tested on: SN12C
HCT-116 = tested on: HCT-116
UACC-257 = tested on: UACC-257
HOP-62 = tested on: HOP-62

SMILES | GI50 (TK-10) | GI50 (SF-539) | GI50 (LOX IMVI) | GI50 (SK-MEL-28) | GI50 (MOLT-4) | GI50 (KM12) | GI50 (BT-549) | GI50 (HT-29) | GI50 (CCRF-CEM) | GI50 (SK-MEL-5) | GI50 (T47D) | GI50 (SF-295) | GI50 (HCT-15) [µM] | GI50 (U-251) | GI50 (SK-MEL-2) | GI50 (UO-31) | GI50 (SN12C) | GI50 (HCT-116) | GI50 (UACC-257) | GI50 (HOP-62)
O=c1c2nc[nH]c2n(-c2ccccc2)c(=S)n1-c1ccccc1 | > 100 µM (inactive) | > 100 µM (inactive) | > 100 µM (inactive) | > 100 µM (inactive) | > 100 µM (inactive) | > 100 µM (inactive) | > 100 µM (inactive) | > 100 µM (inactive) | > 100 µM (inactive) | > 100 µM (inactive) | > 100 µM (inactive) | > 100 µM (inactive) | > 100 | > 100 µM (inactive) | > 100 µM (inactive) | > 100 µM (inactive) | > 100 µM (inactive) | > 100 µM (inactive) | > 100 µM (inactive) | > 100 µM (inactive)
CCOC(=O)C(NC(=O)Nc1ccc(Cl)c(Cl)c1)C(F)(F)F (stereo not given) | > 100 µM (inactive) | > 100 µM (inactive) | > 100 µM (inactive) | > 100 µM (inactive) | > 100 µM (inactive) | – | 45.2 µM (inactive) | > 100 µM (inactive) | > 100 µM (inactive) | > 100 µM (inactive) | > 100 µM (inactive) | – | 40.9 | > 100 µM (inactive) | 63 µM (inactive) | 49.8 µM (inactive) | > 100 µM (inactive) | > 100 µM (inactive) | > 100 µM (inactive) | –
COCc1nc2c(OC)c(-c3nc4ccc(N5CCN(C)CC5)cc4[nH]3)cc(OC)c2[nH]1 | 84.9 µM (inactive) | 20 µM (inactive) | 18.7 µM (inactive) | > 100 µM (inactive) | 41.1 µM (inactive) | 28.1 µM (inactive) | > 100 µM (inactive) | 31.5 µM (inactive) | 27.5 µM (inactive) | 22.2 µM (inactive) | 65.2 µM (inactive) | 21.6 µM (inactive) | 56.1 | 42 µM (inactive) | 27.9 µM (inactive) | 31.2 µM (inactive) | 43.9 µM (inactive) | 30.8 µM (inactive) | 17.7 µM (inactive) | 32.4 µM (inactive)
CN(C)c1ccc(-c2ccc(N(C)C)c3n[se]nc23)c2n[se]nc12 | > 100 µM (inactive) | > 100 µM (inactive) | > 100 µM (inactive) | > 100 µM (inactive) | > 100 µM (inactive) | > 100 µM (inactive) | > 100 µM (inactive) | > 100 µM (inactive) | > 100 µM (inactive) | > 100 µM (inactive) | > 100 µM (inactive) | > 100 µM (inactive) | > 100 | > 100 µM (inactive) | > 100 µM (inactive) | > 100 µM (inactive) | > 100 µM (inactive) | > 100 µM (inactive) | > 100 µM (inactive) | > 100 µM (inactive)
COc1ccc2nc3c([N+](=O)[O-])ccc4c3c(c2c1)N=CN4CCN(C)C | 6.34 µM (inactive) | 3.28 µM (inactive) | 3.38 µM (inactive) | 7.01 µM (inactive) | 2.04 µM (inactive) | 3.86 µM (inactive) | 12 µM (inactive) | 2.52 µM (inactive) | 0.764 µM (active) | 2.53 µM (inactive) | 5.14 µM (inactive) | 5.57 µM (inactive) | 2.57 | 5.07 µM (inactive) | 9.23 µM (inactive) | 2.46 µM (inactive) | 2.88 µM (inactive) | 2.44 µM (inactive) | 3.96 µM (inactive) | 3.17 µM (inactive)
C=CCOc1cc(NC(=S)c2ccoc2C)ccc1OC | – | > 100 µM (inactive) | > 100 µM (inactive) | > 100 µM (inactive) | > 100 µM (inactive) | > 100 µM (inactive) | > 100 µM (inactive) | > 100 µM (inactive) | > 100 µM (inactive) | > 100 µM (inactive) | > 100 µM (inactive) | > 100 µM (inactive) | > 100 | 58.9 µM (inactive) | > 100 µM (inactive) | > 100 µM (inactive) | > 100 µM (inactive) | > 100 µM (inactive) | > 100 µM (inactive) | –
O/N=C(/CC(O)(C(F)(F)F)C(F)(F)F)c1ccccc1 | > 10 µM (inactive) | > 10 µM (inactive) | > 10 µM (inactive) | > 10 µM (inactive) | > 10 µM (inactive) | > 10 µM (inactive) | > 10 µM (inactive) | > 10 µM (inactive) | > 10 µM (inactive) | 2.1 µM (inactive) | > 10 µM (inactive) | > 10 µM (inactive) | > 10 | > 10 µM (inactive) | > 10 µM (inactive) | – | > 10 µM (inactive) | > 10 µM (inactive) | > 10 µM (inactive) | > 10 µM (inactive)
Nc1ccc2ccc(-c3ccc[nH]3)nc2n1 | > 100 µM (inactive) | > 100 µM (inactive) | > 100 µM (inactive) | > 100 µM (inactive) | – | > 100 µM (inactive) | > 100 µM (inactive) | – | – | > 100 µM (inactive) | > 100 µM (inactive) | > 100 µM (inactive) | > 100 | > 100 µM (inactive) | > 100 µM (inactive) | > 100 µM (inactive) | > 100 µM (inactive) | > 100 µM (inactive) | > 100 µM (inactive) | > 100 µM (inactive)
CSc1nc(Cl)c2c(n1)Sc1nc3ccccc3n1N=C2 | 33.7 µM (inactive) | – | 18.2 µM (inactive) | 40.8 µM (inactive) | 21.7 µM (inactive) | 37.8 µM (inactive) | 18.6 µM (inactive) | 23.2 µM (inactive) | 14.9 µM (inactive) | 21.3 µM (inactive) | 23.5 µM (inactive) | > 100 µM (inactive) | 17.6 | 55.6 µM (inactive) | 50.4 µM (inactive) | 18.5 µM (inactive) | 37.8 µM (inactive) | 25.1 µM (inactive) | 35.8 µM (inactive) | 41.7 µM (inactive)
CNC(=O)Oc1ccc(C(=S)Nc2ccc(Br)cc2)cc1 | – | 18.4 µM (inactive) | 13.4 µM (inactive) | 22 µM (inactive) | 5.42 µM (inactive) | 14.3 µM (inactive) | 17.1 µM (inactive) | 19.9 µM (inactive) | 1.81 µM (inactive) | 17.8 µM (inactive) | 18.5 µM (inactive) | – | 16.1 | 23.2 µM (inactive) | 17.7 µM (inactive) | 17 µM (inactive) | – | 19.8 µM (inactive) | 28.4 µM (inactive) | 20.6 µM (inactive)
CCOC(=O)c1[nH]c(Br)c(-c2ccc(OC)c(OC)c2)c1Br | 14 µM (inactive) | – | 0.0179 µM (active) | 0.0562 µM (active) | 0.0262 µM (active) | 0.0303 µM (active) | 0.054 µM (active) | – | 0.0173 µM (active) | 0.0412 µM (active) | 21 µM (inactive) | 0.00975 µM (active) | 0.0527 | 0.0311 µM (active) | 0.0336 µM (active) | 0.0676 µM (active) | 0.117 µM (active) | 0.0183 µM (active) | 0.00386 µM (active) | 0.0608 µM (active)
O=C1C=CC2(C=C1)O[C@H](COCc1ccccc1)[C@@H](COCc1ccccc1)O2 | 1.6 µM (inactive) | 1.97 µM (inactive) | 1.56 µM (inactive) | 1.8 µM (inactive) | 0.371 µM (active) | 3.49 µM (inactive) | 0.792 µM (active) | 2.34 µM (inactive) | – | 1.67 µM (inactive) | 2.04 µM (inactive) | 16 µM (inactive) | 1.24 | 1.92 µM (inactive) | 1.71 µM (inactive) | 1.57 µM (inactive) | 1.65 µM (inactive) | 0.235 µM (active) | 1.62 µM (inactive) | 2.23 µM (inactive)
CC(=O)NC1C(OC(C)C(=O)NC(C)C(=O)NC(CCC(=O)NCCCCCNc2ccc([N+](=O)[O-])c3[nH]c4ccccc4c(=O)c23)C(N)=O)C(O)C(CO)OC1(C)OCc1ccccc1 (stereo not given) | 11.9 µM (inactive) | 64.1 µM (inactive) | > 100 µM (inactive) | – | 24.8 µM (inactive) | 79.3 µM (inactive) | > 100 µM (inactive) | 30.9 µM (inactive) | > 100 µM (inactive) | > 100 µM (inactive) | > 100 µM (inactive) | > 100 µM (inactive) | 73.8 | > 100 µM (inactive) | > 100 µM (inactive) | 50.4 µM (inactive) | > 100 µM (inactive) | 23.7 µM (inactive) | > 100 µM (inactive) | 89.7 µM (inactive)
CC(C)[C@@H]1CC[C@@H](C)C[C@H]1OC(=O)c1c2n(c3ccccc13)C[C@H]1OC(C)(C)O[C@@H]21 | 18.5 µM (inactive) | – | 6.18 µM (inactive) | 46.7 µM (inactive) | 3.87 µM (inactive) | 9.08 µM (inactive) | 61.8 µM (inactive) | 8.2 µM (inactive) | 4.22 µM (inactive) | 5.5 µM (inactive) | 15.2 µM (inactive) | 6.46 µM (inactive) | 24.7 | 5.14 µM (inactive) | > 100 µM (inactive) | 96.2 µM (inactive) | 24.9 µM (inactive) | 4.36 µM (inactive) | 6.95 µM (inactive) | 27.5 µM (inactive)
CCOC(=O)C1=C(N2CCCC2)C(=O)C(C(=O)OCC)C1 (stereo not given) | > 100 µM (inactive) | > 100 µM (inactive) | > 100 µM (inactive) | > 100 µM (inactive) | > 100 µM (inactive) | > 100 µM (inactive) | > 100 µM (inactive) | – | – | > 100 µM (inactive) | > 100 µM (inactive) | > 100 µM (inactive) | > 100 | > 100 µM (inactive) | > 100 µM (inactive) | > 100 µM (inactive) | > 100 µM (inactive) | > 100 µM (inactive) | > 100 µM (inactive) | > 100 µM (inactive)
